US12558428B2, “Heterobifunctional compounds and their use in treating disease” (Halda Therapeutics OpCo, Inc., priority 2024, dated 2026)
Like-named read-outs stand apart in the source and are kept apart here.

Legend:
Type in all cases: cell-based
[1] = system: T-Rex 293 cells lacking increased expression of estrogen receptor alpha protein; experiment: Cellular growth inhibition assay, T-Rex 293 cells, (−) doxycycline; conditions: T-REx-293, 72 h, 72 hours
Summary of the method: (§1)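 Cells of an inducible ERα-expressing T-Rex 293 clone are seeded in charcoal-dextran FBS medium with or without 3 ng/mL doxycycline, then treated after 24 h with compound dilutions (0.5% DMSO) for 72 h. Growth inhibition is measured by CellTiter-Glo luminescence and expressed as GI50.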

[2] = system: MCF7 cells (ATCC #HTB-22); experiment: Cellular growth inhibition assay, MCF7 cells purchased from ATCC; conditions: Homo sapiens, MCF7, 144 h, Table 8-A; MCF7 cells purchased from ATCC; six days; CellTiter-Glo; read-out: GI50
Summary of the method: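 GI50 values come from a four-parameter fit of CellTiter-Glo 2.0 luminescence after six days of compound exposure at 37° C. Seeding density depended on the source: 225 cells/well for ECACC MCF7, 1,500 for ATCC. Medium was RPMI 1640 with 10% FBS and 0.2 U/ml insulin.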

[3] = system: T-Rex 293 cells having increased expression of estrogen receptor alpha protein; experiment: Cellular growth inhibition assay, T-Rex 293 cells, (+) doxycycline; conditions: T-REx-293, 72 h, 72 hours
Summary of the method: as §1

[4] = Table 7-A, T-Rex 293 cells without doxycycline (lacking increased ERα expression), CellTiter-Glo, read-out: (−) Dox GI50
[5] = Table 7-A, T-Rex 293 cells with doxycycline (increased ERα expression), CellTiter-Glo, read-out: (+) Dox GI50
[6] = T-Rex 293 cells without doxycycline, CellTiter-Glo 2.0, read-out: (−) Dox TRex ERa (GI50)
[7] = T-Rex 293 cells with doxycycline-induced ERα expression, CellTiter-Glo 2.0, read-out: (+) Dox TRex ERa (GI50)

GI50 [2] [µM] | SMILES | GI50 [1, 4] [µM] | GI50 [3, 5] [µM] | GI50 [1, 6] [µM] | GI50 [3, 7] [µM]
0.05 to 0.5 | CC1=C(c2c(F)cc(F)cc2F)[C@@H](c2ccc(OCC(=O)N3CCC4(CC3)CCN(c3ccc(C5=N[C@@H](C)c6nnc(C)n6-c6sc(C)c(C)c65)cc3)C4)cc2)Oc2ccc(O)cc21 [V-26] | 0.05 to 0.5 | < 0.05 |  | 
0.05 to 0.5 | Cc1sc2c(c1C)C(c1ccc(N3CC(CN4CC(CC5CN(c6ccc([C@@H]7c8ccc(O)cc8CC[C@@H]7c7ccccc7)cc6)C5)C4)C3)cc1)=N[C@@H](C)c1nnc(C)n1-2 [III-220] | 0.05 to 0.5 | < 0.05 |  | 
0.05 to 0.5 | Cc1sc2c(c1C)C(c1ccc(N3CCC(C(=O)N4CCN(c5ccc([C@@H]6c7ccc(O)cc7CC[C@@H]6c6ccccc6)cc5)CC4)CC3)cc1)=N[C@@H](C)c1nnc(C)n1-2 [III-119] | 0.5 to 2.5 | 0.05 to 0.5 |  | 
0.5 to 2.5 | Cc1sc2c(c1C)C(c1ccc(OCCCCC3CCN(c4ccc(C(=O)c5c(-c6ccc(Br)cc6)sc6cc(O)ccc56)cc4)CC3)cc1)=N[C@@H](Cc1ncco1)c1nnc(C)n1-2 [I-14, (S)-(2-(4-bromophenyl)-6-hydroxybenzo[b]thiophen-3-yl)(4-(4-(4-(4-(2,3,9-trimethyl-6-(oxazol-2-ylmethyl)-6H-thieno[3,2-f][1,2,4]triazolo[4,3-a][1,4]diazepin-4-yl)phenoxy)butyl)piperidin-1-yl)phenyl)methanone] |  |  | > 2.5 | 0.05 to 0.5
< 0.05 | Cc1sc2c(c1C)C(c1ccc(N3CCC(O)(CN4CCN(c5ccc([C@@H]6c7ccc(O)cc7CC[C@@H]6c6cc(F)ccc6F)c(F)c5)CC4)CC3)cc1)=N[C@@H](C)c1nnc(C)n1-2 [III-274] | 0.5 to 2.5 | < 0.05 |  | 
< 0.05 | Cc1sc2c(c1C)C(c1ccc(N3CCC(CN4CCN(c5ccc([C@@H]6c7ccc(O)cc7CC[C@@H]6c6ccccc6)cc5)CC4)CC3)cc1)=N[C@@H](Cc1ncco1)c1nnc(C)n1-2 [III-73] | 0.5 to 2.5 | < 0.05 |  | 
< 0.05 | Cc1sc2c(c1C)C(c1ccc(N3CCC(O)(CN4CCC(c5ccc([C@@H]6c7ccc(O)cc7CC[C@@H]6c6ccccc6)cc5)CC4)CC3)cc1)=N[C@@H](C)c1nnc(C)n1-2 [III-25] | 0.5 to 2.5 | < 0.05 |  | 
0.05 to 0.5 | Cc1sc2c(c1C)C(c1ccc(N3CCOC4(CCN(CCOc5ccc([C@@H]6c7ccc(O)cc7CC[C@@H]6c6ccccc6)cc5)CC4)C3)cc1)=CC(Cc1ncco1)c1nnc(C)n1-2 (stereo partly drawn) [III-60] | 0.05 to 0.5 | 0.05 to 0.5 |  | 
0.5 to 2.5 | Cc1sc2c(c1C)C(c1ccc(CC3CC4(CCN(c5ccc([C@H]6c7ccc(O)cc7CC[C@H]6c6ccccc6)cc5)CC4)C3)cc1)=N[C@@H](C)c1nnc(C)n1-2 [III-15] | 0.5 to 2.5 | 0.5 to 2.5 |  | 
< 0.05 | COc1cc(N2CCN(CC3(O)CCN(c4ccc(C5=N[C@@H](C)c6nnc(C)n6-c6sc(C)c(C)c65)cc4)CC3)CC2)ccc1[C@@H]1c2ccc(O)cc2CC[C@@H]1c1cccc(F)c1 [III-310] | 0.5 to 2.5 | < 0.05 |  | 
< 0.05 | Cn1cc(-c2cc(C(C)(C)O)ccc2Oc2ccc(N3CC(CC4CCN(CCOc5ccc(C(=O)c6c(-c7ccc(O)cc7)sc7cc(O)ccc67)cc5)CC4)C3)cc2)c2cc[nH]c2c1=O [I-11, 4-(2-(4-(3-((1-(2-(4-(6-hydroxy-2-(4-hydroxyphenyl)benzo[b]thiophene-3-carbonyl)phenoxy)ethyl)piperidin-4-yl)methyl)azetidin-1-yl)phenoxy)-5-(2-hydroxypropan-2-yl)phenyl)-6-methyl-1,6-dihydro-7H-pyrrolo[2,3-c]pyridin-7-one] |  |  | < 0.05 | < 0.05
0.5 to 2.5 | Cc1sc2c(c1C)C(c1ccc(N3CC4(CC(CN5CCN(c6ccc([C@H]7c8ccc(O)cc8CC[C@H]7c7ccc(F)cc7)cc6F)CC5)C4)C3)cc1)=N[C@@H](C)c1nnc(C)n1-2 [III-281] | 0.5 to 2.5 | 0.05 to 0.5 |  | 
0.05 to 0.5 | Cc1cc([C@H]2c3ccc(O)cc3CC[C@H]2c2ccc(F)cc2)ccc1N1CCN(CC2(O)CCN(c3ccc(C4=N[C@@H](C)c5nnc(C)n5-c5sc(C)c(C)c54)cc3)CC2)CC1 [III-283] | 0.5 to 2.5 | 0.05 to 0.5 |  | 
0.05 to 0.5 | Cc1sc2c(c1C)C(c1ccc(N3CCC(O)(CN4CCN(c5ccc([C@H]6c7ccc(C(=O)O)cc7CC[C@H]6c6ccccc6)cc5)CC4)CC3)cc1)=N[C@@H](C)c1nnc(C)n1-2 [III-189] | > 2.5 | > 2.5 |  | 
0.05 to 0.5 | Cc1sc2c(c1C)C(c1ccc(N3CCC(O)(CC4CCN(c5ccc([C@@H]6c7ccc(O)cc7CC[C@@H]6c6ccccc6)cc5)CC4)CC3)cc1)=N[C@H](Cc1ncco1)c1nnc(C)n1-2 [III-154] | > 2.5 | > 2.5 |  | 
0.05 to 0.5 | CCN(Cc1ccc(CCN2CC[C@@H](OCCOCCOc3ccc(C4=N[C@@H](C)c5nnc(C)n5-c5sc(C)c(C)c54)cc3)C2)cc1)c1cc(OC)ccc1C1CCc2cc(O)ccc2C1 (stereo partly drawn) [I-34a, (R)-6-(2-(ethyl(4-(2-((R)-3-(2-(2-(4-((S)-2,3,6,9-tetramethyl-6H-thieno[3,2-f][1,2,4]triazolo[4,3-a][1,4]diazepin-4-yl)phenoxy)ethoxy)ethoxy)pyrrolidin-1-yl)ethyl)benzyl)amino)-4-methoxyphenyl)-5,6,7,8-tetrahydronaphthalen-2-ol] | 0.5 to 2.5 | 0.05 to 0.5 |  | 
< 0.05 | Cc1sc2c(c1C)C(c1ccc(N3CCC(CN4CCN(c5ccc(C6=C(c7ccccc7Cl)CCCc7cc(O)ccc76)cc5)CC4)CC3)cc1)=N[C@@H](C)c1nnc(C)n1-2 [IV-40] | > 2.5 | < 0.05 |  | 
0.05 to 0.5 | Cc1sc2c(c1C)C(c1ccc(C3CCC4(CCN(CN5CC(c6ccc([C@@H]7c8ccc(O)cc8CC[C@@H]7c7ccccc7)cc6)C5)CC4)C3)cc1)=N[C@@H](C)c1nnc(C)n1-2 (stereo partly drawn) [III-228] | 0.5 to 2.5 | < 0.05 |  | 
0.5 to 2.5 | Cc1sc2c(c1C)C(c1ccc(N3CCN(CC4CCN(c5ccc([C@H]6c7ccc(O)cc7CC[C@H]6c6ccccc6)cc5)CC4)CC3)cc1)=N[C@H](Cc1ncco1)c1nnc(C)n1-2 [III-2, (5S,6R)-6-phenyl-5-(4-(4-((4-(4-((R)-2,3,9-trimethyl-6-(oxazol-2-ylmethyl)-6H-thieno[3,2-f][1,2,4]triazolo[4,3-a][1,4]diazepin-4-yl)phenyl)piperazin-1-yl)methyl)piperidin-1-yl)phenyl)-5,6,7,8-tetrahydronaphthalen-2-ol] | > 2.5 | > 2.5 |  | 
0.05 to 0.5 | Cc1sc2c(c1C)C(c1ccc(N3CCC(C#N)(CN4CCN(c5ccc([C@@H]6c7ccc(O)cc7CC[C@@H]6c6ccccc6)cc5)CC4)CC3)cc1)=N[C@@H](C)c1nnc(C)n1-2 [III-150] | 0.5 to 2.5 | < 0.05 |  | 
0.05 to 0.5 | CC1=C(c2c(F)cc(F)cc2F)[C@@H](c2ccc(C3CCN(CC4CCN(c5ccc(C6=N[C@@H](C)c7nnc(C)n7-c7sc(C)c(C)c76)cc5)CC4)CC3)cc2)Oc2ccc(O)cc21 [V-13] | 0.05 to 0.5 | 0.05 to 0.5 |  | 
0.05 to 0.5 | Cc1sc2c(c1C)C(c1ccc(N3CC4(CC(CN5CCN(c6cc(F)c([C@H]7c8ccc(O)cc8CC[C@H]7c7ccc(F)cc7)c(F)c6)CC5)C4)C3)cc1)=N[C@@H](C)c1nnc(C)n1-2 [III-295] | 0.5 to 2.5 | 0.5 to 2.5 |  | 
< 0.05 | Cc1sc2c(c1C)C(c1ccc(C3CN(C(=O)C4CCN(c5ccc([C@@H]6c7ccc(O)cc7CC[C@@H]6c6ccccc6)cc5)CC4)C3)cc1)=N[C@@H](Cc1ncco1)c1nnc(C)n1-2 [III-156] | < 0.05 | < 0.05 |  | 
< 0.05 | COc1cc(N2CCN(CC3(O)CCN(c4ccc(C5=N[C@@H](C)c6nnc(C)n6-c6sc(C)c(C)c65)cc4)CC3)CC2)ccc1[C@@H]1c2ccc(O)cc2CC[C@@H]1c1ccccc1F (single isomer, unassigned) [III-307] | 0.5 to 2.5 | < 0.05 |  | 
< 0.05 | Cc1sc2c(c1C)C(c1ccc(N3CC(O)(CC4CN(CC5CN(c6ccc(C7=C(c8ccccc8)CCCc8cc(C(=O)O)ccc87)cc6)C5)C4)C3)cc1)=N[C@@H](C)c1nnc(C)n1-2 [IV-43] | 0.05 to 0.5 | < 0.05 |  | 
0.05 to 0.5 | Cc1sc2c(c1C)C(c1ccc(N3CCC(O)(CN4CCN(c5cc(F)c([C@H]6c7ccc(O)cc7CC[C@H]6c6ccccc6)cc5F)CC4)CC3)cc1)=N[C@@H](Cc1ncco1)c1nnc(C)n1-2 [III-300] | 0.05 to 0.5 | < 0.05 |  | 
0.05 to 0.5 | Cc1sc2c(c1C)C(c1ccc(N3CC(CN4CCC(CC5CN(c6ccc([C@@H]7c8ccc(O)cc8CC[C@@H]7c7ccccc7)cc6)C5)CC4)C3)cc1)=N[C@@H](C)c1nnc(C)n1-2 [III-133] | 0.05 to 0.5 | < 0.05 |  | 

SMILES | GI50 [2] [µM] | GI50 [1, 4] [µM] | GI50 [3, 5] [µM] | GI50 [1, 6] [µM] | GI50 [3, 7] [µM]
Cc1sc2c(c1C)C(c1ccc(N3C4CCC3CN(CCOc3ccc([C@@H]5c6ccc(O)cc6CC[C@@H]5c5ccccc5)cc3)C4)cc1)=NC(Cc1ncco1)c1nnc(C)n1-2 (stereo partly drawn) [III-31] | 0.05 to 0.5 | 0.05 to 0.5 | > 2.5 |  | 
